Here are results for nine compounds from patent publication US10519134B2, “Pyrazole compounds and methods of making and using same” (Lundbeck La Jolla Research Center, Inc., priority 2015, dated 2019).

Common to all, as to assay type: biochemical
Test [1] has as its target T1, MAGL (Mus musculus, UniProt O35678).
T1 construct: Proteomes (mouse brain membrane fraction or cell lysates); from tissue; host or cells: mouse brain membrane fraction (or cell lysates)
T1 sequence (O35678 1-303): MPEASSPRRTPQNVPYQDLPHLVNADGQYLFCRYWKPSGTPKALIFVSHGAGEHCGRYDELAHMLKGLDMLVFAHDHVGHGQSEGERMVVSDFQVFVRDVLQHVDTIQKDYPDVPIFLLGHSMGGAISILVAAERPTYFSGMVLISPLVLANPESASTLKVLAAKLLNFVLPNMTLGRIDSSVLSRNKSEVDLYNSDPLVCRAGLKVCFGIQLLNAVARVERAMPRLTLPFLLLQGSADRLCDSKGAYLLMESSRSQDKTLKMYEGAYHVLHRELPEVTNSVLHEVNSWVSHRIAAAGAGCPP
In words: In vitro competitive activity-based protein profiling (mouse), MAGL gel band. The note with it: for inhibition at 1 µM: read-out: MAGL % inh. 1 μM. The procedure, abridged: (§1)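 Mouse brain membrane proteome or cell lysate (1.0 mg/mL total protein) was preincubated with varying inhibitor concentrations for 30 min at 37 °C, then labelled for 30 min at 37 °C with FP-Rh or HT-01 (50 μM stock in DMSO). Activity was read as fluorescent band intensity after SDS-PAGE.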

Test [2] deals with T2, MAGL (Homo sapiens, UniProt Q99685).
T2 construct: Proteomes (human prefrontal cortex or cell membrane fractions); from tissue; host or cells: human prefrontal cortex (or cell membrane fractions)
T2 sequence (Q99685 1-303): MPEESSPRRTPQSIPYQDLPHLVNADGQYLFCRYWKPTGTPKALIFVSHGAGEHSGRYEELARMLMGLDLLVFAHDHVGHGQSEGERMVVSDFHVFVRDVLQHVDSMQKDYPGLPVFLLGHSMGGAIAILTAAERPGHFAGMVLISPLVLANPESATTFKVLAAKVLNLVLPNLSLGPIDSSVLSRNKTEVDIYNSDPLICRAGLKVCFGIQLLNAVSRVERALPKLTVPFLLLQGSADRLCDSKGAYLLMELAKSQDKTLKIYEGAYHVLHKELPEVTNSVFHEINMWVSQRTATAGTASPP
In words: In vitro competitive activity-based protein profiling (human), MAGL gel band. In a few lines: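 Human prefrontal cortex or cell membrane proteomes (1.0-2.0 mg/mL protein) preincubated with inhibitors 30 min at 37° C, then labelled with FP-Rh or JW912 probe 30 min at room temperature. Residual MAGL activity read as fluorescent gel-band intensity after SDS-PAGE.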

In another test the target is T3, FAAH (Mus musculus, UniProt O08914).
T3 construct: Proteomes (mouse brain membrane fraction or cell lysates); from tissue; host or cells: mouse brain membrane fraction (or cell lysates)
T3 sequence (O08914 1-579): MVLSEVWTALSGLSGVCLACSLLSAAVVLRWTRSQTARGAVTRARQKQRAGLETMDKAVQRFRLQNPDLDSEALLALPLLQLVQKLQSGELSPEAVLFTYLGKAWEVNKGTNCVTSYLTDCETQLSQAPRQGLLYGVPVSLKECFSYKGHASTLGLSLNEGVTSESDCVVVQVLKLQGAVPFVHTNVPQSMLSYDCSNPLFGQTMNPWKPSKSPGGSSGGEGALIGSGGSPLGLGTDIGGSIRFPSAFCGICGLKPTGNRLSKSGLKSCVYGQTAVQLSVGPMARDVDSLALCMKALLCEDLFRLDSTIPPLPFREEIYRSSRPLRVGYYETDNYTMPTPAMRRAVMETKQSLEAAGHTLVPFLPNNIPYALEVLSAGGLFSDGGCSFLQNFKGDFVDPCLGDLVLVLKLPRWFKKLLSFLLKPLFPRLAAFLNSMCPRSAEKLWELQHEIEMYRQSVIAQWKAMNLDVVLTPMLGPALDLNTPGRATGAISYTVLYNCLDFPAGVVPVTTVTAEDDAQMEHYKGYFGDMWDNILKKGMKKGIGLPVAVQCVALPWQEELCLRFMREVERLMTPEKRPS
As to the kind of experiment: In vitro competitive activity-based protein profiling (mouse), FAAH gel band. The note with it: for inhibition at 1 µM: read-out: FAAH % inh. 1 μM. The procedure, abridged: as §1

A value given as a limit tells only on which side of the number the result lay.

For orientation: IC50 means the concentration that gives 50% inhibition. Lower therefore signals higher potency. Regarding `CN(C)C(=O)C1CCN(c2cc(C(F)(F)F)ccc2CN2CCN(C(=O)n3ccc(NS(C)(=O)=O)n3)CC2)CC1` [Example 231, N,N-dimethyl-1-(2-((4-(3-(methylsulfonamido)-1H-pyrazole-1-carbonyl)piperazin-1-yl)methyl)-5-(trifluoromethyl)phenyl)piperidine-4-carboxamide], the inhibition at 1 µM at MAGL [1] is no less than 75%; on FAAH, 0 to 25%. Also, the half-inhibitory concentration (IC50) on MAGL [2] was no more than 100 nM.
For `CS(=O)(=O)Nc1ccn(C(=O)N2CCN(Cc3ccc(C(F)(F)F)cc3N3CCC4(CC3)CCN(S(C)(=O)=O)C4)CC2)n1` [Example 234, N-(1-(4-(2-(2-(methylsulfonyl)-2,8-diazaspiro[4.5]decan-8-yl)-4-(trifluoromethyl)benzyl)piperazine-1-carbonyl)-1H-pyrazol-3-yl) methanesulfonamide], in that order: no less than 75%, 0 to 25% and no more than 100 nM.
For `CS(=O)(=O)Nc1ccn(C(=O)N2CCN(Cc3ccc(C(F)(F)F)cc3N3CCC4(CCN(S(C)(=O)=O)CC4)C3)CC2)n1` [Example 235, N-(1-(4-(2-(8-(methylsulfonyl)-2,8-diazaspiro[4.5]decan-2-yl)-4-(trifluoromethyl)benzyl)piperazine-1-carbonyl)-1H-pyrazol-3-yl) methanesulfonamide], in that order: no less than 75%, 0 to 25% and no more than 100 nM.
For `CS(=O)(=O)Nc1ccn(C(=O)N2CCN(Cc3ccc(Cl)c(N4CCCCC4)c3)CC2)n1` [Example 236, N-(1-(4-(4-chloro-3-(piperidin-1-yl)benzyl)piperazine-1-carbonyl)-1H-pyrazol-3-yl) methanesulfonamide], in that order: no less than 75%, 0 to 25% and no more than 100 nM.
Turning to `CC(C)n1cc(-c2cc(CN3CCN(C(=O)n4ccc(NS(C)(=O)=O)n4)CC3)ccc2Cl)cn1` [Example 237, N-(1-(4-(4-chloro-3-(1-isopropyl-1H-pyrazol-4-yl)benzyl)piperazine-1-carbonyl)-1H-pyrazol-3-yl) methanesulfonamide], the inhibition at 1 µM on MAGL [1] is no less than 75%; on FAAH, 0 to 25%. Further, on MAGL [2], the IC50 was no more than 100 nM.
Taken in the same sequence, the figures for `CS(=O)(=O)Nc1ccn(C(=O)N2CCN(Cc3ccc(C(F)(F)F)cc3N3CCC(c4nnn[nH]4)CC3)CC2)n1` [Example 240, N-(1-(4-(2-(4-(1H-tetrazol-5-yl)piperidin-1-yl)-4-(trifluoromethyl)benzyl)piperazine-1-carbonyl)-1H-pyrazol-3-yl) methanesulfonamide] were no less than 75%, 0 to 25% and 100 to 1000 nM.
Taken in the same sequence, the figures for `CS(=O)(=O)Nc1ccn(C(=O)N2CCN(Cc3ccc(C(F)(F)F)cc3N3CCC(C(N)=O)CC3)CC2)n1` [Example 250, 1-(2-((4-(3-(methylsulfonamido)-1H-pyrazole-1-carbonyl)piperazin-1-yl)methyl)-5-(trifluoromethyl)phenyl)piperidine-4-carboxamide] were no less than 75%, 0 to 25% and no more than 100 nM.
For `Cc1cc(CN2CCCC23CCN(C(=O)n2ccc(NC(=O)C(F)F)n2)CC3)ccc1Cl` [Example 257, N-(1-(1-(4-chloro-3-methylbenzyl)-1,8-diazaspiro[4.5]decane-8-carbonyl)-1H-pyrazol-3-yl)-2,2-difluoroacetamide], in that order: no less than 75%, 0 to 25% and no more than 100 nM.
As for `CC(=O)Nc1ccn(C(=O)N2CCN(Cc3ccc(C(F)(F)F)cc3N3CCC(C(C)(C)O)CC3)CC2)n1` [Example 266, N-(1-(4-(2-(4-(2-hydroxypropan-2-yl)piperidin-1-yl)-4-(trifluoromethyl)benzyl)piperazine-1-carbonyl)-1H-pyrazol-3-yl)acetamide], the IC50 at MAGL [1] (mouse) is no more than 100 nM; on MAGL [2], no more than 100 nM; on FAAH (mouse), 1000 to 10000 nM. In addition, the values for the inhibition at 1 µM at MAGL [1] and on FAAH were no less than 75% and 0 to 25%, respectively.
